Read-outs that look alike come from different tables or passages of the source.
Columns and labels:
Recombinant human COMT = target: T1, Recombinant human COMT (Homo sapiens, UniProt P21964); assay: COMT inhibitory assay (3-BTD fluorescent substrate); assay type: biochemical
T1 construct: made in house
T1 sequence (P21964 1-271): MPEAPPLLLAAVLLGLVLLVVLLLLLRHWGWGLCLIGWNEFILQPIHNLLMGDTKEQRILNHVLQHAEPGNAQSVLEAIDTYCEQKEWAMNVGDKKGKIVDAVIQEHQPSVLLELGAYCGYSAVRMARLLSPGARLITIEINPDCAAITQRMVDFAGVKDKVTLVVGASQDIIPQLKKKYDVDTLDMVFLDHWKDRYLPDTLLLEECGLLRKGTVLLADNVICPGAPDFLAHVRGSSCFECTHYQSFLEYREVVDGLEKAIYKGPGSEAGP

[1] = cited from earlier work
[2] = 1 µM COMT, 200 µM SAM, 20 µM 3-BTD, 0–100 µM inhibitor, pH 7.5, 37 °C, read-out: COMT inhibitory activities (IC50)

Compound | IC50 (Recombinant human COMT; [2]) | also measured
COc1cc(-c2oc3cc(O)cc(O)c3c(=O)c2O[C@@H]2O[C@H](CO)[C@@H](O)[C@H](O)[C@H]2O)ccc1O [Compound 2, isorhamnetin 3-O-β-glucoside] | 55 µM | 
CC1OC(OC2C(Oc3c(-c4ccc(O)c(O)c4)oc4cc(O)cc(O)c4c3=O)OC(CO)C(O)C2O)C(O)C(O)C1O (stereo not drawn) [Compound 3, quercetin 3-O-β-neohesperidoside] |  | IC50 (Recombinant human COMT): 71 µM
O=C(O)CC(=O)OC[C@H]1O[C@@H](Oc2c(-c3ccc(O)c(O)c3)oc3cc(O)cc(O)c3c2=O)[C@H](O)[C@@H](O)[C@@H]1O [Compound 5, quercetin 3-O-(6″-O-malonyl)-β-glucoside] | 59 µM | 
O=C(/C=C/c1ccc(O)c(O)c1)O[C@@H]1C[C@](O)(C(=O)O)C[C@@H](O)[C@H]1O [Compound 8, chlorogenic acid] | 100 µM | 
Cc1ccc(C(=O)c2cc(O)c(O)c([N+](=O)[O-])c2)cc1 [Tolcapone] |  | hepatotoxicity [1]: severe hepatotoxicity

Continued, in another order:

IC50 (Recombinant human COMT; [2]) | Compound | also measured
65 µM | CC1OC(OC2C(Oc3c(-c4ccc(O)c(O)c4)oc4cc(O)cc(O)c4c3=O)OC(COC(=O)CC(=O)O)C(O)C2O)C(O)C(O)C1O (stereo not drawn) [Compound 4, quercetin 3-O-(2″-O-α-rhamnosyl-6″-O-malonyl)-β-glucoside] | 
42 µM | COC(=O)CC(=O)OC[C@H]1O[C@@H](Oc2c(-c3ccc(O)c(O)c3)oc3cc(O)cc(O)c3c2=O)[C@H](O)[C@@H](O)[C@@H]1O [Compound 6] | 
> 100 µM | COc1cc(-c2oc3cc(O)cc(O)c3c(=O)c2O[C@@H]2O[C@H](COC(=O)CC(=O)O)[C@@H](O)[C@H](O)[C@H]2O)ccc1O [Compound 7, isorhamnetin 3-O-(6″-O-malonyl)-β-glucoside] | 
21 µM | O=C(C=Cc1ccc(O)c(O)c1)OC1CC(O)(C(=O)O)CC(O)C1OC(=O)C=Cc1ccc(O)c(O)c1 (centres unmarked) [Compound 9, 3,4-dicaffeoylquinic acid] | COMT inhibitory activity (in words) (Recombinant human COMT; isolated compounds 1–10 compared): highest inhibitory activity
> 100 µM | COc1cc(C(=O)O)cc(OC)c1O [Compound 10, syringic acid] | 

From paper PMC9919311, “Catechol-O-methyltransferase Inhibitors from Calendula officinalis Leaf” (Molecules, 2023)
